Laboratory results: US4072683A, “3,4-Dihydrocarbostyril derivatives” (Otsuka Pharmaceutical Co., Ltd., priority 1974, dated 1978)
Read-outs that look alike come from different tables or passages of the source.

How the values were obtained:
β-adrenergic nerves = assay: Antagonistic activity against isoproterenol (β-adrenergic nerves blocking activity), anesthetized dogs; type: in vivo, Mongrel dogs; conditions: Canis lupus familiaris, iv, isoproterenol 0.3 μg/kg, dog; for inhibition at 0.0001 mg/kg: 0.1 μg/kg i.v.; for inhibition at 0.001 mg/kg: 1.0 μg/kg i.v.; for inhibition at 0.01 mg/kg: 10 μg/kg i.v.; for inhibition at 0.1 mg/kg: 100 μg/kg i.v.
Experimental: For example, the antagonistic activity against isoproterenol (as an indication of β-adrenergic nerves blocking activity) of the 3,4-dihydrocarbostyril derivatives of the present invention was measured according to a method as described in R. D. Robson and H. R. Kaplan, "J. Pharmacol. Exp. Therap.," Vol. 175, page 157 (1970) as follows:
Mongrel dogs of both sexes weighing 9.7 - 19.0 kg were anesthetized with pentobarbital-Na (30 mg/kg, i.v.) and fixed on their back. Anesthesia was maintained by continuous intravenous infusion of pentobarbital-Na at a rate of 4 mg/kg/hour.
Arterial blood pressure was measured from the left femoral artery with a pressure transducer (Nihon Kohden, RP-3). The left femoral vein was cannulated for i.v. injection of drugs. Heart rate was measured with a tachometer (San-ei, type 2130) treggered by the R wave of ECG (Lead II). Blood pressure and heart rate were simultaneously recorded on an ink-writing recorder (San-ei, type 145).
Test drugs were cumulatively injected at intervals of 10 minutes after reproducibility test on the positive chronotropic and hypotensive actions of a submaximal dose of 0.3 μg/kg of isoproterenol. At the time when responses of blood pressure and heart rate to these test drugs were stabilized, at about 3 minutes after injection, isoproterenol 0.3 μg/kg was injected again. Their antagonistic activities were determined from difference between responses to isoproterenol before and after administration of the test drugs and expressed as % inhibition.

[1] = Hypotensive action, arterial blood pressure in anesthetized dogs; type: in vivo, Mongrel dogs; conditions: cumulative, anesthetized dog
Experimental: Mongrel dogs of both sexes weighing 9.7 - 19.0 kg were anesthetized with pentobarbital-Na (30 mg/kg, i.v.) and fixed on their back. Anesthesia was maintained by continuous intravenous infusion of pentobarbital-Na at a rate of 4 mg/kg/hour. After the vinyl catheter was inserted in the left femoral vein, heparin sodium, 1000 U/kg, was intravenously injected in order to prevent blood coagulation. Arterial blood pressure was measured from the left femoral artery with a pressure transducer (Nihon Kohden, RP-3). Test drugs were dissolved in 0.9% physiological saline solution and then intravenously administered with the cumulative method at intervals of 5 - 10 minutes.

Acute toxicity (LD50) = conditions: in vivo
[2] = blood pressure, read-out: Antagonistic Activity against Isoproterenol (% Inhibition of changes in BP)
[3] = heart rate, read-out: Antagonistic Activity against Isoproterenol (% Inhibition of changes in HR)

Compound | inhibition at 0.0001 mg/kg (β-adrenergic nerves; [2]) [%] | inhibition at 0.001 mg/kg (β-adrenergic nerves; [2]) [%] | inhibition at 0.01 mg/kg (β-adrenergic nerves; [2]) [%] | inhibition at 0.1 mg/kg (β-adrenergic nerves; [2]) [%] | inhibition at 0.0001 mg/kg (β-adrenergic nerves; [3]) [%] | inhibition at 0.01 mg/kg (β-adrenergic nerves; [3]) [%] | inhibition at 0.1 mg/kg (β-adrenergic nerves; [3]) [%] | Hypotensive Action (Blood Pressure mmHg) ([1]; 0.1 μg/kg i.v.) [mmHg] | Hypotensive Action (Blood Pressure mmHg) ([1]; 1.0 μg/kg i.v.) [mmHg] | Hypotensive Action (Blood Pressure mmHg) ([1]; 10 μg/kg i.v.) [mmHg] | Hypotensive Action (Blood Pressure mmHg) ([1]; 100 μg/kg i.v.) [mmHg] | LD50 (Acute toxicity (LD50); iv) [mg/kg] | LD50 (Acute toxicity (LD50); po) [mg/kg] | also measured
CC(C)(C)NCC(O)COc1ccc(O)c2c1CCC(=O)N2 (centres unmarked) [drawing 12] | 18.4 | 64.6 | 94.8 | 100 | 5.1 | 97.5 | 100 | – | – | – | – | – | – | inhibition at 0.001 mg/kg (β-adrenergic nerves; [3]): 44.5%
COc1ccc(OCC(O)CNC(C)(C)C)c2c1NC(=O)CC2 (centres unmarked) [drawing 13] | 40.6 | 54.4 | 77.1 | 82.2 | 7 | 39.8 | 80.5 | – | – | – | – | – | – | –
CC(C)(C)NCC(O)COc1ccc(OCc2ccccc2)c2c1CCC(=O)N2 (centres unmarked) [drawing 14] | 20 | 10.9 | 12.6 | 8.4 | 13.5 | 21.4 | 65.4 | – | – | – | – | – | – | inhibition at 0.001 mg/kg (β-adrenergic nerves; [3]): 13.5%
CC(C)(C)NCC(O)COc1ccc(O)c2c1CCC(=O)N2 (centres unmarked) [drawing 15] | – | – | – | – | – | – | – | -1.6 | -5.4 | -11.8 | -30.6 | – | – | –
COc1ccc(OCC(O)CNC(C)(C)C)c2c1NC(=O)CC2 (centres unmarked) [drawing 16] | – | – | – | – | – | – | – | 0.0 | -2.0 | -3.5 | -5.5 | – | – | –
CC(C)(C)NCC(O)COc1ccc(OCc2ccccc2)c2c1CCC(=O)N2 (centres unmarked) [drawing 17] | – | – | – | – | – | – | – | -1.0 | -4.5 | -10.5 | -16.0 | – | – | –
CC(C)(C)NCC(O)COc1ccc(O)c2c1CCC(=O)N2 (centres unmarked) [drawing 18] | – | – | – | – | – | – | – | – | – | – | – | 94 | 1380 | –
COc1ccc(OCC(O)CNC(C)(C)C)c2c1NC(=O)CC2 (centres unmarked) [drawing 19] | – | – | – | – | – | – | – | – | – | – | – | 83 | 1210 | –
CC(C)(C)NCC(O)COc1ccc(OCc2ccccc2)c2c1CCC(=O)N2 (centres unmarked) [drawing 20] | – | – | – | – | – | – | – | – | – | – | – | 80 | 1150 | –
